# Experimental data: patent US10583178B2, “Compositions comprising sulforaphane or a sulforaphane precursor and a mushroom extract or powder” (NUTRAMAX LABORATORIES, INC., priority 2012, dated 2020)
# How the values were obtained:
# myrosinase = assay: Conversion of glucoraphanin to sulforaphane in Simulated Intestinal Fluid; format: biochemical, broccoli; conditions: 38° C., 0.25 to 1.00 mmol/Liter, especially at earlier stages
# Description: Simulated Intestinal Fluid (SIF) powder, a commercially supplied concentrate closely approximating the human intestinal content in terms of composition, pH and ionic strength, was used. The experiment utilized a USP Dissolution Apparatus 2 (paddles), where into six dissolution vessels 500 mL of Simulated Intestinal Fluid was dispensed, along with 150 mg of freeze-dried broccoli sprout powder as a source of myrosinase. […] Aliquots were withdrawn every 15 minutes, and assayed for sulforaphane.
# [1] = tested on: broccoli sprout-derived myrosinase; assay: Consumption of glucoraphanin by myrosinase as a function of ascorbic acid concentration; format: biochemical; conditions: 38° C.
# Description: About 250 mg of broccoli seed extract containing about 12% (w/w) glucoraphanin were subjected to hydrolysis by a fixed concentration of broccoli sprout-derived myrosinase in the presence of variable concentration of ascorbic acid, ranging from 0 to 600 μmoles/Liter. The reaction mixtures were thermostated at 38° C.; aliquots were withdrawn every 15 minutes for 60 minutes, and concentration of glucoraphanin determined chromatographically. The rate of glucoraphanin consumption was interpreted as the rate its conversion to sulforaphane. Graphical representation of glucoraphanin content reduction as a function of increasing ascorbic acid concentration results in a series of linear plots; the slopes of the linear regression lines reflect the rate of glucoraphanin consumption, in moles/minute. It is apparent that in the presence of 600 μmoles/Liter concentration of ascorbic acid, the reaction rate increased 13-fold relative to that which proceeded in the absence of modulatory effects of ascorbic acid.
# [2] = tested on: NAD(P)H:quinone oxidoreductase (NQO1); conditions: oral administration, mammary epithelium; cited from earlier work
# [3] = tested on: Nad(P)H:quinone oxidoreductase 1 (NQO-1) gene expression; assay: NQO-1 gene expression by quantitative RT-PCR in macrophage cell line RAW 264.7; format: cell-based; conditions: 0.5 μM SFN, RAW 264.7, 24 hours
# Description: The following study was conducted to determine the effect of the combination of sulforaphane and a maitake mushroom extract containing 20% β-glucans on gene expression of Nad(P)H:quinone oxidoreductase 1 (NQO-1). NQO-1 encodes a protein that is able to metabolize estrogen quinones, preventing them from forming DNA adducts that cause mutations and ultimately carcinogenesis. An increase in NQO-1 expression is favorable for breast, colon, liver, lung, skin and prostate health.
# In the study, the macrophage cell line RAW 264.7 was treated with DMSO (vehicle control), sulforaphane (SFN), maitake mushroom extract having about 20% beta-glucan content (Maitake), or the combination of sulforaphane and maitake mushroom extract, for 24 hours. […] Gene expression of NQO-1 gene expression was analyzed via quantitative RT-PCR. The results, which are depicted in FIG. 5, show the following: […]
# In the study, the macrophage cell line RAW 264.7 was treated with DMSO (vehicle control), sulforaphane (SFN), shiitake mushroom extract having at least 20% alpha-glucan content (Shiitake), or the combination of sulforaphane and shiitake mushroom extract, for 24 hours. […] Gene expression of NQO-1 gene expression was analyzed via quantitative RT-PCR. […]
# heme oxygenase-1 (HO-1) = conditions: oral administration, mammary epithelium; cited from earlier work
smiles,measurement,setting,value
"O=C1O[C@H]([C@@H](O)CO)C(O)=C1O [Ascorbic Acid, ascorbic acid]",relation of sulforaphane yield to ascorbic acid concentration,myrosinase,direct correlation
same,glucoraphanin content,"[1]; 50 μM ascorbic acid, 0 min",93.36 µmol
same,glucoraphanin content,"[1]; 50 μM ascorbic acid, 15 min",89.20 µmol
same,glucoraphanin content,"[1]; 50 μM ascorbic acid, 30 min",84.24 µmol
same,glucoraphanin content,"[1]; 50 μM ascorbic acid, 45 min",80.30 µmol
same,glucoraphanin content,"[1]; 50 μM ascorbic acid, 60 min",76.36 µmol
same,glucoraphanin content,"[1]; 125 μM ascorbic acid, 0 min",93.36 µmol
same,glucoraphanin content,"[1]; 125 μM ascorbic acid, 15 min",84.52 µmol
same,glucoraphanin content,"[1]; 125 μM ascorbic acid, 30 min",75.92 µmol
same,glucoraphanin content,"[1]; 125 μM ascorbic acid, 45 min",68.09 µmol
same,glucoraphanin content,"[1]; 125 μM ascorbic acid, 60 min",59.41 µmol
same,glucoraphanin content,"[1]; 250 μM Filtered ascorbic acid, 0 min",93.36 µmol
same,glucoraphanin content,"[1]; 250 μM Filtered ascorbic acid, 15 min",86.31 µmol
same,glucoraphanin content,"[1]; 250 μM Filtered ascorbic acid, 30 min",79.44 µmol
same,glucoraphanin content,"[1]; 250 μM Filtered ascorbic acid, 45 min",71.94 µmol
same,glucoraphanin content,"[1]; 250 μM Filtered ascorbic acid, 60 min",65.18 µmol
same,glucoraphanin content,"[1]; 250 μM ascorbic acid, 0 min",93.36 µmol
same,glucoraphanin content,"[1]; 250 μM ascorbic acid, 15 min",80.95 µmol
same,glucoraphanin content,"[1]; 250 μM ascorbic acid, 30 min",69.06 µmol
same,glucoraphanin content,"[1]; 250 μM ascorbic acid, 45 min",57.63 µmol
same,glucoraphanin content,"[1]; 250 μM ascorbic acid, 60 min",45.76 µmol
same,glucoraphanin content,"[1]; 400 μM ascorbic acid, 0 min",93.36 µmol
same,glucoraphanin content,"[1]; 400 μM ascorbic acid, 15 min",78.32 µmol
same,glucoraphanin content,"[1]; 400 μM ascorbic acid, 30 min",62.78 µmol
same,glucoraphanin content,"[1]; 400 μM ascorbic acid, 45 min",47.67 µmol
same,glucoraphanin content,"[1]; 400 μM ascorbic acid, 60 min",33.15 µmol
same,glucoraphanin content,"[1]; 600 μM ascorbic acid, 0 min",93.36 µmol
same,glucoraphanin content,"[1]; 600 μM ascorbic acid, 15 min",75.02 µmol
same,glucoraphanin content,"[1]; 600 μM ascorbic acid, 30 min",55.66 µmol
same,glucoraphanin content,"[1]; 600 μM ascorbic acid, 45 min",37.50 µmol
same,glucoraphanin content,"[1]; 600 μM ascorbic acid, 60 min",22.09 µmol
"C[S+]([O-])CCCCN=C=S (stereo not shown) [SFN, 1-isothiocyanato-4-methylsulfinylbutane]",increase in NQO1 enzymatic activity,[2],3 fold
same,Fold Increase in NQO-1 gene expression,[3],12.96 fold
same,elevated immunostaining of HO-1,heme oxygenase-1 (HO-1),4 fold
